The structures appear in SMILES notation. Counter-ions that a name gives are not always drawn.

The target of the first test is GCN2 (Homo sapiens, UniProt Q9P2K8). Description: GCN2 enzymatic endpoint assay: phosphorylation of GFP-eIF2α measured by TR-FRET (Lanthascreen). As to conditions: GCN2 biochemical IC50; 4 nM GCN2, 2 μM ATP, 80 nM GFP-eIF2α, 90 min RT; read-out: GCN2 activity. Type of test: biochemical. The gist of the method: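 Endpoint kinase reaction with 2 μM ATP and 80 nM GFP-labelled eIF2α substrate, run at room temperature for 90 min, then stopped with EDTA. Phospho-substrate detected by terbium-antibody TR-FRET, activity taken as the 520/495 nm emission ratio.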
Sequence of GCN2 (Q9P2K8 whole entry): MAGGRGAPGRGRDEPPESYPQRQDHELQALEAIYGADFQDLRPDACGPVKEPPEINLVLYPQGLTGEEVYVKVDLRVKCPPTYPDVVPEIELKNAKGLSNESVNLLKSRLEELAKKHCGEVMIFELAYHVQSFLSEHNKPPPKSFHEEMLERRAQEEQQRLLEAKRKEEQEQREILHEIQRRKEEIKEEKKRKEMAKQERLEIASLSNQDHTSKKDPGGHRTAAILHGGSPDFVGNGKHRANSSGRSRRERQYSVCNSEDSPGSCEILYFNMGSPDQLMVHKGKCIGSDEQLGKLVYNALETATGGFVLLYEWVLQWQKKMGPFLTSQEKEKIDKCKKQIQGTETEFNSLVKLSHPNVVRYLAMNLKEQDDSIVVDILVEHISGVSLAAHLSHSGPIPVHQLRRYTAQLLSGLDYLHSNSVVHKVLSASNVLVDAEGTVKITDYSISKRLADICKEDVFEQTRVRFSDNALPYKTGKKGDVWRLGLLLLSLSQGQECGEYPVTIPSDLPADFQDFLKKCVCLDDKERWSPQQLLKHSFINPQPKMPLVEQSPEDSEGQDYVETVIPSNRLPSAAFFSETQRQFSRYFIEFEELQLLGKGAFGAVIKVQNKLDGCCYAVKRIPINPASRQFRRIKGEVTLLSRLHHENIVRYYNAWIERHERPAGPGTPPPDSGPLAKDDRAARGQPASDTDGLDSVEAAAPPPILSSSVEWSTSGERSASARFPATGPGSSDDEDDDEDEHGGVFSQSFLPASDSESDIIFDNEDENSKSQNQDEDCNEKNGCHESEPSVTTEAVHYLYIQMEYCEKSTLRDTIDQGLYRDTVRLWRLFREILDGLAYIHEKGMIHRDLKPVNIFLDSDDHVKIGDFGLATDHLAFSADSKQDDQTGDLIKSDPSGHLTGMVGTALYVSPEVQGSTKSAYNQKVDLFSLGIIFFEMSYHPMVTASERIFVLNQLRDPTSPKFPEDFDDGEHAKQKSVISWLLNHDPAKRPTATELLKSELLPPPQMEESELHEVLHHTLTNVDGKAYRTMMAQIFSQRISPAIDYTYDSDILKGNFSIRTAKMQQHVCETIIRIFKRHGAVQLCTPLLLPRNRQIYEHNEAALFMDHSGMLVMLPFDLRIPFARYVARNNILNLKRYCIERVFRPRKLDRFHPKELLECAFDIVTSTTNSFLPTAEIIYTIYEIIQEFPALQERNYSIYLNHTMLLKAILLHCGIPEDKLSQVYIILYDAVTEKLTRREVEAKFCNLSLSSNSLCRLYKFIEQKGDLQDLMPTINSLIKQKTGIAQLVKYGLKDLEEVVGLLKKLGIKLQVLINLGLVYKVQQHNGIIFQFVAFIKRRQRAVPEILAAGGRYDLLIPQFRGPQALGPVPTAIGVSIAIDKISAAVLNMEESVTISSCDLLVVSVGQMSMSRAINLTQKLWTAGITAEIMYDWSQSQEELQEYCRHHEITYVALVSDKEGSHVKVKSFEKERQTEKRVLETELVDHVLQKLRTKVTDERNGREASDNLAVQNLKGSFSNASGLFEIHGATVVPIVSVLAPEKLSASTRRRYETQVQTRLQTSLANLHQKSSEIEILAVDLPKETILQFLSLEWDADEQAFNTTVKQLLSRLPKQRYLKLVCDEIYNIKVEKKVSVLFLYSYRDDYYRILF
As to `Brc1nn(-c2ccc3ncccc3c2)c2nc(N[C@@H]3CC[C@@H](c4ncc[nH]4)C3)ncc12` [Example 25, N-((1R,3R)-3-(1H-imidazol-2-yl)cyclopentyl)-3-bromo-1-(quinolin-6-yl)-1H-pyrazolo[3,4-d]pyrimidin-6-amine], the IC50 lay within 25 to 200 nM.

For `CNC(=O)[C@]1(CCC#N)CC[C@@H](Nc2ncc3c(Br)nn(-c4cc(F)c5ncccc5c4)c3n2)C1` [Example 43, (1S,3R)-3-((3-bromo-1-(8-fluoroquinolin-6-yl)-1H-pyrazolo[3,4-d]pyrimidin-6-yl)amino)-1-(2-cyanoethyl)-N-methylcyclopentane-1-carboxamide hydrochloride], the IC50 was < 25 nM.

Staying with this test, now noted: tested as described in Example 77; compound and/or hydrochloride, dihydrochloride or trifluoroacetic acid salt; read-out: IC 50 Activity.
For the compound `CNC(=O)[C@]1(C)CC[C@@H](Nc2ncc3c(Br)nn(-c4ccc5c(=O)n(C)c(=O)n(C)c5c4)c3n2)C1` [(1R,3R)-3-[[3-bromo-1-(1,3-dimethyl-2,4-dioxo-quinazolin-7-yl)pyrazolo [3,4-d]pyrimidin-6-yl]amino]-N,1-dimethyl-cyclopentanecarboxamide], the IC50 is < 25 nM.

With `CNC(=O)[C@]1(C)CC[C@@H](Nc2ncc3c(Br)nn(-c4cc(F)cc(C(N)=O)c4)c3n2)C1` [3-[3-bromo-6-[[(1R,3R)-3-methyl-3-(methylcarbamoyl)cyclopentyl]amino]pyrazolo[3,4-d]pyrimidin-1-yl]-5-fluoro-benzamide], the IC50 is 25 to 200 nM.

Take `CNC(=O)[C@]1(C)CC[C@@H](Nc2ncc3c(Br)nn(-c4cccc(NC(=O)c5cscn5)c4)c3n2)C1` [N-[3-[3-bromo-6-[[(1R,3R)-3-methyl-3-(methylcarbamoyl)cyclopentyl]amino]pyrazolo[3,4-d]pyrimidin-1-yl]phenyl] thiazole-4-carboxamide]: the IC50 fell in the range of 25 to 200 nM.

On to `CNC(=O)[C@]1(C)CC[C@@H](Nc2ncc3c(Br)nn(-c4cc(Cl)cc(CC#N)c4)c3n2)C1` [(1R,3R)-3-[[3-bromo-1-[3-chloro-5-(cyanomethyl)phenyl]pyrazolo[3,4-d]pyrimidin-6-yl]amino]-N,1-dimethyl-cyclopentanecarboxamide], for which the IC50 was 25 to 200 nM.

As to `CNC(=O)[C@]1(C)CC[C@@H](Nc2ncc3c(Br)nn(-c4ccc5c(c4)COC5=O)c3n2)C1`, the IC50 lay in the range of 25 to 200 nM.

`CNC(=O)[C@]1(C)CC[C@@H](Nc2ncc3c(Br)nn(-c4ccc5c(c4)OCC(=O)N5CC#N)c3n2)C1` [(1R,3R)-3-[[3-bromo-1-[4-(cyanomethyl)-3-oxo-1,4-benzoxazin-7-yl]pyrazolo[3,4-d]pyrimidin-6-yl]amino]-N,1-dimethyl-cyclopentanecarboxamide]: the IC50 was in the range of 25 to 200 nM.

For `CNC(=O)[C@]1(C)CC[C@@H](Nc2ncc3c(Br)nn(-c4cc(C#N)cc(OCC#N)c4)c3n2)C1` [(1R,3R)-3-[[3-bromo-1-[3-cyano-5-(cyanomethoxy)phenyl]pyrazolo[3,4-d]pyrimidin-6-yl]amino]-N,1-dimethyl-cyclopentanecarboxamide], the IC50 was in the range of 25 to 200 nM.

Turning to `N#Cc1cc(-n2nc(Br)c3cnc(N[C@@H]4CC[C@@H](C(=O)N5CCC5)C4)nc32)cc2cccnc12` [6-(6-(((1R,3R)-3-(azetidine-1-carbonyl)cyclopentyl)amino)-3-bromo-1H-pyrazolo [3,4-d]pyrimidin-1-yl)quinoline-8-carbonitrile], the IC50 was 25 to 200 nM.

On to `CNC(=O)C1(CCC#N)CC[C@@H](Nc2ncc3c(Br)nn(-c4ccc(-c5nnc(C)s5)c(CCC#N)c4)c3n2)C1` (stereo partly drawn) [(3R)-3-[[3-bromo-1-[3-(2-cyanoethyl)-4-(5-methyl-1,3,4-thiadiazol-2-yl)phenyl]pyrazolo[3,4-d]pyrimidin-6-yl]amino]-1-(2-cyanoethyl)-N-methyl-cyclopentanecarboxamide], for which the IC50 was 25 to 200 nM.

Turning to `CNC(=O)[C@]1(C)CC[C@@H](Nc2ncc3c(Br)nn(-c4cc(CCC#N)c5ncccc5c4)c3n2)C1` [(1R,3R)-3-[[3-bromo-1-[8-(2-cyanoethyl)-6-quinolyl]pyrazolo[3,4-d]pyrimidin-6-yl]amino]-N,1-dimethyl-cyclopentane-carboxamide], the IC50 was < 25 nM.

For the compound `Cn1cccc(NC(=O)[C@@H]2CC[C@@H](Nc3ncc4c(Br)nn(-c5cc(F)c6ncccc6c5)c4n3)C2)c1=O` [(1R,3R)-3-[[3-bromo-1-(8-fluoro-6-quinolyl)pyrazolo[3,4-d]pyrimidin-6-yl]amino]-N-(1-methyl-2-oxo-3-pyridyl)cyclopentane-carboxamide], the IC50 is 25 to 200 nM.

As for `CNC(=O)[C@@H]1CC[C@@H](Nc2ncc3c(Br)nn(-c4cnc5c(C#N)cccc5c4)c3n2)C1` [(1R,3R)-3-[[3-bromo-1-(8-cyano-3-quinolyl)pyrazolo[3,4-d]pyrimidin-6-yl]amino]-N-methyl-cyclopentanecarboxamide], the IC50 was in the range of 25 to 200 nM.

As to `O=S(=O)(NC1CCC1)[C@@H]1CC[C@@H](Nc2ncc3c(Br)nn(-c4ccc5ncccc5c4)c3n2)C1` [(1R,3R)-3-((3-bromo-1-(quinolin-6-yl)-1H-pyrazolo[3,4-d]pyrimidin-6-yl)amino)-N-cyclobutylcyclopentane-1-sulfonamide], the IC50 lay in the range of 500 to 1000 nM.

Turning to `CN1CCC2(CCN(C(=O)[C@@H]3CC[C@@H](Nc4ncc5c(Br)nn(-c6cc(F)c7ncccc7c6)c5n4)C3)C2)C1=O` (stereo partly drawn) [7-((1R,3R)-3-((3-bromo-1-(8-fluoroquinolin-6-yl)-1H-pyrazolo[3,4-d]pyrimidin-6-yl)amino)cyclopentane-1-carbonyl)-2-methyl-2,7-diazaspiro[4.4]nonan-1-one], the IC50 is 25 to 200 nM.

As for `CC(O)C(=O)N1CCN(C(=O)[C@@H]2CC[C@@H](Nc3ncc4c(Br)nn(-c5ccc6ncccc6c5)c4n3)C2)CC1` (stereo partly drawn) [1-(4-((1R,3R)-3-((3-bromo-1-(quinolin-6-yl)-1H-pyrazolo[3,4-d]pyrimidin-6-yl)amino)cyclopentane-1-carbonyl)piperazin-1-yl)-2-hydroxypropan-1-one], the IC50 is 25 to 200 nM.

`CN(C)C(=O)C1(NC(=O)[C@@H]2CC[C@@H](Nc3ncc4c(Br)nn(-c5cc(F)c6ncccc6c5)c4n3)C2)CC1` [(1R,3R)-3-[[3-bromo-1-(8-fluoro-6-quinolyl)pyrazolo[3,4-d]pyrimidin-6-yl]amino]-N-[1-(dimethylcarbamoyl)cyclopropyl]cyclo-pentanecarboxamide]: the IC50 lay within 25 to 200 nM.

Turning to `CNC(=O)[C@]1(C)CC[C@@H](Nc2ncc3c(Br)nn(-c4ccc(-c5nnc(C)s5)c(CC(C#N)CO)c4)c3n2)C1` (stereo partly drawn) [(1R,3R)-3-[[3-bromo-1-[3-(2-cyano-3-hydroxy-propyl)-4-(5-methyl-1,3,4-thiadiazol-2-yl)phenyl]pyrazolo[3,4-d]pyrimidin-6-yl]amino]-N,1-dimethyl-cyclopentanecarboxamide], the IC50 was < 25 nM.

Turning to `CC1N(C)C(=O)CN1C(=O)[C@@H]1CC[C@@H](Nc2ncc3c(Br)nn(-c4cc(F)c5ncccc5c4)c3n2)C1` (mixture of isomers), the IC50 was < 25 nM.

As for `CNC(=O)C1(CCS(C)(=O)=O)CC[C@@H](Nc2ncc3c(Br)nn(-c4ccc(-c5nnc(C)s5)cc4)c3n2)C1` (stereo partly drawn) [(3R)-3-[[3-bromo-1-[4-(5-methyl-1,3,4-thiadiazol-2-yl)phenyl]pyrazolo[3,4-d]pyrimidin-6-yl]amino]-N-methyl-1-(2-methylsulfonylethyl)cyclopentane-carboxamide], the IC50 fell in the range of 25 to 200 nM.

In the case of `O=C([C@@H]1CC[C@@H](Nc2ncc3c(Br)nn(-c4ccc5ncccc5c4)c3n2)C1)N1CCOCC1` [((1R,3R)-3-((3-bromo-1-(quinolin-6-yl)-1H-pyrazolo[3,4-d]pyrimidin-6-yl)amino)cyclo-pentyl)(morpholino)methanone], the IC50 fell in the range of 25 to 200 nM.

Turning to `O=C(N[C@@H]1CCOC1)[C@@H]1CC[C@@H](Nc2ncc3c(Br)nn(-c4cc(F)c5ncccc5c4)c3n2)C1` [(1R,3R)-3-((3-bromo-1-(8-fluoroquinolin-6-yl)-1H-pyrazolo[3,4-d]pyrimidin-6-yl)amino)-N-((R)-tetrahydrofuran-3-yl)cyclopentane-1-carboxamide], the IC50 was < 25 nM.

As for `CNC(=O)[C@]1(C)CC[C@@H](Nc2ncc3c(Br)nn(-c4cc(CCN)c5ncc(C#N)cc5c4)c3n2)C1` [(1R,3R)-3-[[1-[8-(2-aminoethyl)-3-cyano-6-quinolyl]-3-bromo-pyrazolo[3,4-d]pyrimidin-6-yl]amino]-N,1-dimethyl-cyclopentane-carboxamide], the IC50 lay within 25 to 200 nM.

For `CNC(=O)[C@]1(C)CC[C@@H](Nc2ncc3c(Br)nn(-c4ccc(-c5ccn(C)n5)cc4)c3n2)C1` [(1R,3R)-3-[[3-bromo-1-[4-(1-methyl-pyrazol-3-yl)phenyl]pyrazolo[3,4-d]pyrimidin-6-yl]amino]-N,1-dimethyl-cyclopentanecarboxamide], the IC50 lay in the range of 25 to 200 nM.

Turning to `Cc1nnc(-c2ccc(-n3nc(Br)c4cnc(NC5CCN(CC(F)F)C5)nc43)cc2)s1` (centres unmarked) [3-bromo-N-[1-(2,2-difluoroethyl)pyrrolidin-3-yl]-1-[4-(5-methyl-1,3,4-thiadiazol-2-yl)phenyl] pyrazolo[3,4-d]pyrimidin-6-amine], the IC50 is 25 to 200 nM.

In the case of `CNC(=O)[C@]1(C)CC[C@@H](Nc2ncc3c(Br)nn(-c4cc(OCC5(F)CNC5)cc(OC(F)(F)F)c4)c3n2)C1` [(1R,3R)-3-[[3-bromo-1-[3-[(3-fluoroazetidin-3-yl)methoxy]-5-(trifluoromethoxy)phenyl]pyrazolo[3,4-d]pyrimidin-6-yl]amino]-N,1-dimethyl-cyclopentanecarboxamide], the IC50 lay in the range of 25 to 200 nM.

Turning to `Fc1cc(-n2nc(Br)c3cnc(NC4COC4)nc32)cc2cccnc12` [3-bromo-1-(8-fluoro-6-quinolyl)-N-(oxetan-3-yl)pyrazolo[3,4-d]pyrimidin-6-amine], the IC50 is 25 to 200 nM.

For the compound `O=C([C@@H]1CC[C@@H](Nc2ncc3c(Br)nn(-c4cc(F)c5ncccc5c4)c3n2)C1)N1CCC2(CNC2)C(F)(F)C1` [[(1R,3R)-3-[[3-bromo-1-(8-fluoro-6-quinolyl)pyrazolo[3,4-d]pyrimidin-6-yl]amino]cyclo-pentyl]-(5,5-difluoro-2,7-diazaspiro[3.5]nonan-7-yl)methanone], the IC50 was < 25 nM.

The record behind these values is patent publication US11046699B2, “Pyrazolo-pyrimidin-amino-cycloalkyl compounds and their therapeutic uses” (RAPT THERAPEUTICS, INC., priority 2018, dated 2021).
